Source: patent publication US20200061038A1, “THERAPEUTIC AGENT FOR FIBROSIS AND INHIBITOR OF NUCLEAR TRANSLOCATION OF PHOSPHORYLATED SMAD” (NATIONAL UNIVERSITY CORPORATION CHIBA UNIVERSITY, priority 2016, published 2020)

How the values were obtained:
[1] = test system: Smad2; assay: Smad2 phosphorylation (western blot) in HFL1 cells; type: cell-based, human; settings: for phosphorylation level of Smad2 (ROCK pathway): Y27632 20 μM, Cytochalasin B 2 μM; for phosphorylation level of Smad2 (ROCK pathway) / phosphorylation level of Smad2 due to TGFβ1 treatment (PKC inhibitors): TGFβ1 10 ng/mL; for phosphorylation level of Smad2 due to TGFβ1 treatment (PKC inhibitors): GF109203X 10 μM, Rottlerin 1 μM
Method: HFL1 cells were inoculated onto a six-well plate by 1.0×10^5 cells/well, and then cultured in 2.0 mL of DMEM containing 10% FBS, to achieve 70% confluence. The cells were washed using Hanks' balanced salt solution (HBSS) containing 0.1% bovine serum albumin (BSA) (4.2 mM NaHCO3, 137 mM NaCl, 5.36 mM KCl, 0.4 mM MgSO4.7H2O, 0.34 mM Na2HPO4.12H2O, 5.55 mM glucose, 0.44 mM KH2PO4, 0.72 mM CaCl2.H2O, pH=7.4), and then cultured in a DMEM containing 0.1% BSA for 48 hours without serum.
Thereafter, the medium was replaced by a DMEM containing 0.1% BSA, and stimulation was given for a specified period using each reagent (each inhibitor was applied 30 minutes before the stimulant), after which the cells were collected on ice using 100 μL of RIPA buffer (150 mM NaCl, 50 mM Tris-HCl, 5 mM EDTA, 5 mM NaF, 10 mM sodium pyrophosphate dibasic, 1% Nonidet P-40, 0.1% sodium dodecyl sulfate, 0.5% sodium deoxycholate, pH 8.0) containing 10 μg/mL aprotinin, 10 μg/mL leupeptin, and phenyl methyl sulfonyl fluoride (PMSF) as a protease inhibitor.
The cells were crushed according to the vortex method, centrifuged under the conditions of 15000 rpm and 4° C. for 30 minutes, and the supernatant was taken as a sample. Quantitative determination of protein was performed according to the Bradford method, and a specified amount of protein was separated by SDS-polyacrylic amide gel electrophoresis. The protein was transferred onto a polyvinylidene difluoride (PVDF) film, blocked for 1 hour at room temperature, with a primary antibody applied overnight at 4° C., and a secondary antibody applied for 1 hour at room temperature.
Thereafter, the PVDF film was soaked in an ECL solution and fluorometric detection was performed using an image capture/analysis system (ChemiDocMP System manufactured by Bio-Rad). The detected bands were converted to numerical values using image processing software (ImageJ).

[2] = test system: αSMA; assay: αSMA expression (western blot) in TGFβ1-stimulated HFL1 cells; type: cell-based, human; settings: for increase in the αSMA expression level due to TGFβ1 (PKC inhibitors): GF109203X 10 μM, Rottlerin 1 μM, GO06976 0.5 μM and 1.0 μM, 30 minutes before TGFβ1 10 ng/mL; for αSMA expression level recovered, relative to the level when TGFβ1 alone was applied: used together with PPMP (3 μM), lactosylceramide 10 μM
Method: Human pulmonary fibroblast (HFL1) (ATCC CCL-153) cells were cultured under the conditions of 95% air-5% CO2 and 37° C., using a Dulbecco's Modified Eagle Medium (DMEM) containing 10% fetal bovine serum (FBS), 100 μg/mL streptomycin, and 66.7 μg/mL penicillin.
How an increase in lactosylceramide synthesis activity due to TGFβ1 affects the fibrosing of tissues was examined based on the expression level of αSMA, which is a fibrosing marker protein.

[3] = test system: Smad2; assay: Smad2 nuclear localization (immunofluorescent staining, confocal) in HFL1 cells; type: cell-based, human; settings: TGFβ1 10 ng/mL; for nuclear localization of Smad2 due to TGFβ1 (PKC inhibitors): GF109203X 10 μM, Rottlerin 1 μM, GO06976 1 μM
Method: For immunostaining of Smad and phosphorylated Smad, ribonuclease A (RNase, Worthington Biochemical) (200 μg/mL, room temperature, 30 minutes) and propidium iodide (PI, Cayman Chemical) (20 μg/mL, room temperature, 30 minutes) were applied to stain the nucleus, and the stained images were observed using a confocal microscope (FV500 manufactured by Olympus).
When localization of Smad2/3 was observed, on the other hand, Smad2/3 accumulated in the nucleus in 3 hours after the single stimulation of TGFβ1 (10 ng/mL).

[4] = test system: PKCδ; assay: Translocation of PKCδ into the cellular membrane in HFL1 cells; type: cell-based, human
Method: HFL1 cells were inoculated onto a 3.5-cm glass-bottom dish by 1.0×10^4 cells/dish, and then cultured in 2.0 mL of DMEM containing 10% FBS, to achieve 70% confluence. The cells were washed in HBSS containing 0.1% BSA, and then cultured in DMEM containing 0.1% BSA for 48 hours without serum.
Thereafter, the medium was replaced by a DMEM containing 0.1% BSA, and stimulation was given for a specified period using each reagent (each inhibitor was applied 30 minutes before the stimulant), after which each sample was fixed with 4% paraformaldehyde (PFA) at 4° C. for 15 minutes. Thereafter, as deemed appropriate, the sample was permeabilized (0.3% saponin, room temperature, 1 hour) and blocked (3% BSA, room temperature, 1 hour), with a primary antibody applied overnight at 4° C., and a secondary antibody applied for 1 hour at room temperature. For immunostaining of Smad and phosphorylated Smad, ribonuclease A (RNase, Worthington Biochemical) (200 μg/mL, room temperature, 30 minutes) and propidium iodide (PI, Cayman Chemical) (20 μg/mL, room temperature, 30 minutes) were applied to stain the nucleus, and the stained images were observed using a confocal microscope (FV500 manufactured by Olympus).
In general, activation of PKC is observed in the form of its translocation into the cellular membrane; accordingly, involvement of lactosylceramide was examined using the translocation of PKCδ into the cellular membrane as an indicator.

[5] = test system: idiopathic pulmonary fibrosis; settings: patients suffering from idiopathic pulmonary fibrosis; Non-patent Literature 2; cited from earlier work

For `C=C1[C@@H](C)[C@H]2[C@H](Cc3ccccc3)NC(=O)[C@]23OC(=O)/C=C/[C@H](O)CCC[C@@H](C)C/C=C/[C@H]3[C@@H]1O` [Cytochalasin B], the “phosphorylation level of Smad2 (ROCK pathway)” value [1] was “the phosphorylation level did not change”.
With `CN(C)CCCn1cc(C2=C(c3c[nH]c4ccccc34)C(=O)NC2=O)c2ccccc21` [GF109203X] the “phosphorylation level of Smad2 due to TGFβ1 treatment (PKC inhibitors)” value [1] was “no change was observed”, the “increase in the αSMA expression level due to TGFβ1 (PKC inhibitors)” value (“increase … (PKC inhibitors)” for short) [2] was “suppressed significantly” and the “nuclear localization of Smad2 due to TGFβ1 (PKC inhibitors)” value (“nuclear localization … (PKC inhibitors)” below) [3] was “suppressed significantly”.
In the case of `Cn1c2ccccc2c2c3c(c4c5ccccc5n(CCC#N)c4c21)CNC3=O` [GO06976], the “increase … (PKC inhibitors)” value [2] is reported as “did not suppress the increase in the αSMA expression level” and the “nuclear localization … (PKC inhibitors)” value [3] is reported as “did not change”.
With `CCCCCCCCCCCCCC(=O)O[C@@H]1[C@@H](C)[C@@]2(O)[C@@H](C=C(CO)C[C@]3(O)C(=O)C(C)=C[C@@H]23)[C@@H]2C(C)(C)[C@]12OC(C)=O` [PMA, phorbol myristate acetate] the “increase in the αSMA expression level due to TGFβ1 (PKC down-regulation)” value ([2]; PMA 100 nM overnight treatment, TGFβ1 10 ng/mL) was “suppressed the increase in the αSMA expression level”.
For `CC(=O)c1c(O)c(C)c(O)c(Cc2c(O)c3c(c(C(=O)/C=C/c4ccccc4)c2O)OC(C)(C)C=C3)c1O` [Rottlerin], the “translocation of PKCδ into the cellular membrane due to TGFβ1” value ([4]; PPMP 3 μM, Rottlerin 1 μM applied beforehand, two hours after TGFβ1 10 ng/mL) was “translocation of PKCδ into the cellular membrane was suppressed”, the “phosphorylation level of Smad2 due to TGFβ1 treatment (PKC inhibitors)” value [1] was “no change was observed” and the “increase … (PKC inhibitors)” value [2] was “suppressed significantly”. For the same molecule, the “nuclear localization … (PKC inhibitors)” value [3] was “suppressed significantly”.
In the case of `C[C@@H](N)[C@H]1CC[C@H](C(=O)Nc2ccncc2)CC1` [Y27632], the “phosphorylation level of Smad2 (ROCK pathway)” value [1] is reported as “the phosphorylation level did not change”.
For `COC(=O)c1ccc2c(c1)NC(=O)/C2=C(\Nc1ccc(N(C)C(=O)CN2CCN(C)CC2)cc1)c1ccccc1` [nintedanib], the “forced vital capacities of patients” value [5] is given as “improve the forced vital capacities” and the “survival periods of patients” value [5] is given as “cannot extend the survival periods”.
In the case of `Cc1ccc(=O)n(-c2ccccc2)c1` [pirfenidone], the “forced vital capacities of patients” value [5] is given as “improve the forced vital capacities” and the “survival periods of patients” value [5] is given as “cannot extend the survival periods”.
With glucosylceramide the “αSMA expression level recovered, relative to the level when TGFβ1 alone was applied” value ([2]; TGFβ1 10 ng/mL) was “approx. 80%”.
With lactosylceramide the “time the localization of PKCδ on the cellular membrane was sustained” value ([4]; lactosylceramide 10 μM alone) was “at least 30 minutes”, the “translocation of PKCδ into the cellular membrane by the substance alone” value ([4]; lactosylceramide 10 μM alone, five minutes after the stimulation) was “translocation of PKCδ into the cellular membrane was observed” and the “phosphorylation of Smad2 by the substance alone” value ([1]; lactosylceramide 10 μM alone, no TGFβ1) was “did not cause phosphorylation of Smad2”. For the same molecule, the “recovery of the αSMA expression level suppression action” value ([2]; lactosylceramide 10 μM in combined use with PPMP or NB-DNJ, TGFβ1 10 ng/mL) was “led to a recovery of the αSMA expression level suppression action”, the “αSMA expression level recovered, relative to the level when TGFβ1 alone was applied” value ([2]; TGFβ1 10 ng/mL) was “approx. 95%” and the “accumulation of Smad2 in the nucleus, combined use with PPMP” value ([3]; lactosylceramide 10 μM combined with PPMP) was “led to a recovery of the suppression action due to PPMP, and Smad2 accumulated in the nucleus”.
